Reference: ChEMBL document CHEMBL2413024, “Design and synthesis of pyrido[3,2-α]carbazole derivatives and their analogues as potent antitumour agents” (Eur J Med Chem, 2013)

What was measured:
[1] = system: A549; assay: Antitumor activity against human A549 cells after 72 hrs by sulforhodamine B assay; type: functional, cell-based; details: A549, 72 h
[2] = system: HT-29; assay: Antitumor activity against human HT-29 cells after 72 hrs by sulforhodamine B assay; type: functional, cell-based; details: HT-29, 72 h
[3] = Aqueous solubility of the compound in pure water at 25 degC; type: physicochemical
[4] = system: HT-29; assay: Ratio of R16 IC50 to compound IC50 for human HT-29 cells; type: functional
[5] = system: A549; assay: Ratio of R16 IC50 to compound IC50 for human A549 cells; type: functional

CN(C)CCN1C(=O)c2cccc3c2c(cc2c4ccccc4sc32)C1=O
IC50 [1]: 200 nM
IC50 [2]: 1090 nM

CN(C)CCNC(=O)c1cc2c3cc(O)ccc3n(C)c2c2cccnc12.Cl
solubility [3]: 22.4 mg/mL

CN(C)CCNC(=O)c1cc2c3ncccc3n(C)c2c2cccnc12
IC50 [1]: 360 nM
IC50 [2]: 220 nM

CN(C)CCNC(=O)c1cc2c3cnccc3n(C)c2c2cccnc12
IC50 [1]: 160 nM
IC50 [2]: 150 nM

CN(C)CCNC(=O)c1cc2c3ccncc3n(C)c2c2cccnc12
IC50 [1]: 130 nM
IC50 [2]: 130 nM

CN(C)CCNC(=O)c1cc2c3cccnc3n(C)c2c2cccnc12
IC50 [1]: 160 nM
IC50 [2]: 180 nM

Cn1c2ccccc2c2cc(C(=O)NCCN3CCCC3)c3ncccc3c21
IC50 [1]: 270 nM
IC50 [2]: 630 nM

Cn1c2ccccc2c2cc(C(=O)NCCN3CCNCC3)c3ncccc3c21
IC50 [1]: 780 nM
IC50 [2]: 1250 nM

CN1CCN(CCNC(=O)c2cc3c4ccccc4n(C)c3c3cccnc23)CC1
IC50 [1]: 890 nM
IC50 [2]: 1240 nM

Cn1c2ccccc2c2cc(C(=O)NCCN3CCOCC3)c3ncccc3c21
IC50 [1]: 1180 nM
IC50 [2]: 2240 nM

Cn1c2ccccc2c2cc(C(=O)NCCN3CCCCC3)c3ncccc3c21
IC50 [1]: 820 nM
IC50 [2]: 1300 nM

Cn1c2ccccc2c2cc(C(=O)NCCN)c3ncccc3c21
IC50 [1]: 2110 nM
IC50 [2]: 2470 nM

CNCCNC(=O)c1cc2c3ccccc3n(C)c2c2cccnc12
IC50 [1]: 1370 nM
IC50 [2]: 1460 nM

Cn1c2ccccc2c2cc(C(=O)NCCO)c3ncccc3c21
IC50 [1]: 3060 nM
IC50 [2]: 4450 nM

CN(C)CCCNC(=O)c1cc2c3ccccc3n(C)c2c2cccnc12
IC50 [1]: 560 nM
IC50 [2]: 850 nM

Cn1c2ccccc2c2cc(C(=O)NCCCN3CCCC3)c3ncccc3c21
IC50 [1]: 870 nM
IC50 [2]: 1060 nM

Cn1c2ccccc2c2cc(C(=O)NCCCN3CCOCC3)c3ncccc3c21
IC50 [1]: 710 nM
IC50 [2]: 1410 nM

CN(C)CCCNC(=O)c1cc2c3ccccc3oc2c2cccnc12
IC50 [1]: 2230 nM
IC50 [2]: 2060 nM

CN(C)CCCNC(=O)c1cc2c3ccccc3sc2c2cccnc12
IC50 [1]: 600 nM
IC50 [2]: 1160 nM

CN(C)CCNC(=O)c1cc2c3ccccc3oc2c2cccnc12
IC50 [1]: 1890 nM
IC50 [2]: 2270 nM

CN(C)CCNC(=O)c1cc2c3ccccc3sc2c2cccnc12
IC50 [1]: 270 nM
IC50 [2]: 600 nM

COc1ccc2c(c1)c1cc(C(=O)NCCN(C)C)c3ncccc3c1n2C
IC50 [1]: 220 nM
IC50 [2]: 200 nM

CN(C)CCNC(=O)c1cc2c3cc(O)ccc3n(C)c2c2cccnc12
IC50 [1]: 70 nM
Ratio IC50 [4]: 10
IC50 [2]: 110 nM
Ratio IC50 [5]: 7

CN(C)CCNC(=O)c1cc2c3cc(F)ccc3n(C)c2c2cccnc12
IC50 [1]: 170 nM
IC50 [2]: 160 nM

CN(C)CCNC(=O)c1cc2c3cc(Cl)ccc3n(C)c2c2cccnc12
IC50 [1]: 260 nM
IC50 [2]: 230 nM

CN(C)CCNC(=O)c1cc2c3ccccc3[nH]c2c2cccnc12
IC50 [1]: 690 nM
IC50 [2]: 830 nM

CN(C)CCCNC(=O)c1cc2c3ccccc3[nH]c2c2cccnc12
IC50 [1]: 770 nM
IC50 [2]: 1390 nM

CN(C)CCNC(=O)c1cc2c3ccccc3n(C)c2c2cccnc12
IC50 [1]: 390 nM
IC50 [2]: 470 nM
